In experiment [1] the test system is IFNγ production in human whole blood. Kind of experiment: Ex vivo LPS-stimulated human whole blood, IFNγ. It counts as cell-based. The following applies: LPS 100 ng/ml, 22 hours, mean of two donors. The protocol:
(§1) Venous blood from human donors was collected as 10 ml aliquots in tubes containing sodium heparin (BD Vacutainer from Becton Dickinson and Company, Franklin Lakes, N.Y.). Blood was added to sterile polystyrene round bottom 96-well tissue culture plates (Corning Costar) at 100 μl/well, omitting the outside wells. Media (RPMI Medium 1640 with L-glutamine, Invitrogen Corporation, Carlsbad, Calif.) was added to the blood in 90 μl aliquots for a total volume of 190 μl. Outside wells were filled with 200 μl of media. Blood was placed in a humidified 37° C. incubator with 5% CO2 while compounds were prepared (nearly 60 minutes).
(§2) Compounds were prepared from 10 mM stock solutions in dimethylsulfoxide (DMSO, Sigma-Aldrich). […] Final DMSO and ethanol concentrations in the assay were 0.1% and 1.5%. The samples were gently triturated twice to mix and replaced in the incubator. LPS stock (E. coli serotype 0111:B4, Sigma-Aldrich), stored in aliquots of 100 μg/ml in RPMI at −20° C., was diluted 1/50 in RPMI to make a working stock solution. After 60 minutes of incubation, 10 μl of the prepared LPS working stock was added to the blood to a final concentration of 100 ng/ml, omitting wells to be used as negative control. The samples were again gently triturated and the plates incubated overnight for 22 hours. Following incubation, the blood was centrifuged at 1500×g for 5 minutes and the plasma removed to either freeze at −20° C. or assay for cytokine release.
(§3) IL-1β, IFNγ, IL-6, and TNFα protein levels were measured using Meso Scale assay kits (Meso Scale Discovery, Gaithersburg, Md.). Reagents were allowed to come to room temperature. Meso Scale plates were blocked with 30 μl of human plasma/serum assay diluent with gentle shaking for 60 minutes at room temperature. Plates were washed 3× with wash buffer (PBS, Invitrogen Corporation, with 0.05% Tween-20, Sigma-Aldrich). Calibrators for standard curves were prepared in human plasma/serum assay diluent as a […] serial dilution to achieve final concentrations ranging from 50000 pg/ml to 3.2 pg/ml. Samples and calibrators were added at 20 μl/well, then incubated at room temperature with gentle shaking for 90 minutes. Plates were again washed 3 times with wash buffer. Detection antibody was diluted in human plasma/serum antibody diluent to 1 μg/ml and added to the plate at 20 μl/well. Plates were incubated as before for 60 minutes and washed again. Read Buffer T<4×) was diluted 1:1 with mqH2O to 2 times concentration and 150 μl added to each well. Plates were analyzed on the SECTOR Imager 6000 (Meso Scale Discovery) to generate raw signal values.
(§4) IL-1β, IFN-γ, IL-6, and TNFα sample values were verified to be within the calibrator standard curves. Individual values were compared to positive and negative controls (vehicle treated blood with LPS and vehicle treated blood without LPS, respectively) to generate % inhibition. Triplicate values were averaged for each donor. The values for two donors were averaged (only one donor was used for IL-1β) and graphed using 4-parameter fit curves in the GraFit 5.0.11 application.

Experiment [2] deals with IL-1β production in human whole blood. Kind of experiment: Ex vivo LPS-stimulated human whole blood, IL-1β. It counts as cell-based. Particulars: LPS 100 ng/ml, 22 hours, one donor. On the procedure: as §1, §2, §3, §4

Broadly, the inhibition is the percentage by which the read-out fell short of the control. The low end stands for a response near the control, the high end for a response far below the control. Consider `C[C@]12C=CC(=O)C=C1CC[C@@H]1[C@@H]2[C@@H](O)C[C@@]2(C)[C@H]1CC[C@]2(O)C(=O)CO` [Prednisolone], for which the inhibition at 0.000457247 µM in experiment [1] (0.457247 nM) stood at 4.93%; in experiment [2] (0.457247 nM) it was 9.65%. The values for the inhibition at 0.00137174 µM in experiment [1] (1.371742 nM) and in experiment [2] (1.371742 nM) were 10.9% and 15.1%, respectively. Moreover, the inhibition at 0.00411523 µM in experiment [1] (4.115226 nM) stood at 5.16%; in experiment [2] (4.115226 nM) it was 21%. In addition, the inhibition at 0.0123457 µM was found to be 25.7% in experiment [1] (12.34568 nM) and 33.6% in experiment [2] (12.34568 nM). The values for the inhibition at 0.037037 µM in experiment [1] (37.03704 nM) and in experiment [2] (37.03704 nM) were 63.5% and 37.7%, respectively. Moreover, the inhibition at 0.111111 µM in experiment [1] (111.1111 nM) stood at 95%; in experiment [2] (111.1111 nM) it was 73.2%. For the same compound, the inhibition at 0.333333 µM in experiment [1] (333.3333 nM) is 99.8%; in experiment [2] (333.3333 nM), 92.9%. The inhibition at 1 µM in experiment [1] (1000 nM) worked out at 100%; in experiment [2] (1000 nM), 94.9%.

The values above are taken from US7786097B2, “Tricyclic compounds, compositions and methods” (Pfizer Inc., priority 2007, dated 2010).
